Measured values as given in patent US20100003711A1, “Methods to identify therapeutic agents” (THE SCRIPPS RESEARCH INSTITUTE, priority 2005, published 2010).

Each molecule was assayed on leukocyte cell lines (assay: Cytotoxicity to leukocyte cell lines (similar procedures)). Conditions: not given.
Format: cell-based
Description: Cytotoxicity assays. WI-L2 human B-lymphocyte line, HAAE-1 human abdominal aortic endothelial line, MH-S murine alveolar macrophage line, and J774A.1 murine tissue macrophage line were obtained from the ATCC. Human aortic endothelial cells (HAEC) and human vascular smooth muscle cells (VSMS) were obtained from Cambrex Bio Science. Jurkat E6-1T-lymphocytes were kindly provided by Dr. J. Kaye (The Scripps Research Institute). Cells were cultured in ATCC-recommended media with 10% fetal calf serum. Cells were incubated in a controlled atmosphere at 37° C., with 5 or 7% CO2. For lactate dehydrogenase (LDH) release assays, adherent cells were harvested either by addition of 0.05% trypsin/EDTA or by scraping. The cells obtained were seeded onto 96-well microtiter plates (25,000 cells/well) and allowed to recover for 24-48 h. Cells were washed gently and media replaced with fresh media containing 5% fetal calf serum. […] Cytotoxicity was then determined by measuring lactate dehydrogenase (LDH) release from cells in culture. […] 100% Cytotoxicity was defined as the maximum amount of LDH released by dead cells as shown by trypan blue exclusion, or the highest amount of LDH detected upon lysis of cells by 0.9% Triton X-100. The IC50 values were determined by comparison of the raw duplicate data for concentration versus cytotoxicity (%) to non-linear regression analysis (Hill plot) using Graphpad v3.0 software for Macintosh.
For `CC(C)CCC[C@@H](C)[C@H]1CCC2C(CC=O)C([C@@]3(C)CCC=CC3=O)CC[C@@]21C` (stereo partly shown) [6a, 5-Oxo-5,6-secocholest-3-en-6-al], the “cytotoxicity to leukocyte cell lines” value was “cytotoxic”.
In the case of `CC(C)CCC[C@@H](C)[C@H]1CCC2C3C(CC[C@@]21C)[C@@]1(C)CCC=C[C@@]1(O)[C@@H]3C=O` (stereo partly drawn) [7a, 5β-Hydroxy-B-norcholest-3-ene-6β-carboxaldehyde], the “cytotoxicity to leukocyte cell lines” value is reported as “cytotoxic”.
`CC(C)CCC[C@@H](C)[C@H]1CCC2C3C(CC[C@@]21C)[C@@]1(C)CCC=C[C@@]1(O)[C@@H]3CO` (stereo partly shown) [7c] was tested, and the “cytotoxicity to leukocyte cell lines” value was “cytotoxic”.
`CC(C)CCC[C@@H](C)[C@H]1CCC2[C@H](CC(=O)O)C([C@@]3(C)CC[C@H](O)CC3=O)CC[C@@]21C` (stereo partly shown) [10a] was tested, and the “cytotoxicity to leukocyte cell lines” value was “cytotoxic”.
`CC(C)CCC[C@@H](C)[C@H]1CCC2[C@H](CC=O)C([C@@]3(C)CCCCC(=O)O3)CC[C@@]21C` (stereo partly shown) [11a] was tested, and the “cytotoxicity to leukocyte cell lines” value was “cytotoxic”.
In the case of `CC(C)CCC[C@@H](C)[C@H]1CCC2C3C(C=O)=C4C=CCC[C@]4(C)C3CC[C@@]21C` (stereo partly shown) [12a, B-norcholest-3,5-diene-6-carboxaldehyde], the “cytotoxicity to leukocyte cell lines” value is reported as “cytotoxic”.

These molecules were tested on THP-1 monocytes (assay: Monocyte morphology changes (differentiation into macrophages)). Conditions: 12.5 or 25 μM, up to 7 days.
Format: cell-based, human
Description: THP-1 monocytes in suspension were plated in 8-well chambered slides. […] Media containing appropriate treatment compounds was replaced after 4 days. After 4 days treatment, morphologic changes of the adherent cells were assessed by phase-contrast microscopy and photographed using an Olympus Microfire digital camera.
In the case of `CC(C)CCC[C@@H](C)[C@H]1CC[C@H]2[C@@H]3C(=O)C=C4C[C@@H](O)CC[C@]4(C)[C@H]3CC[C@]12C` [7-KC, 7-ketocholesterol, reference compound], the “THP-1 monocyte differentiation into macrophages (adherence, morphology)” value is reported as “began to adhere after 4 days”.
